Reference: patent US9655942B2, “Medical formulation for treating hypercholesterolemia” (priority 2012, dated 2017)

Assays:
[1] = tested on: patients suffering from increased low density lipoprotein (LDL) levels; assay: Example 2: blood level effects (cholesterol, HDL, LDL, non-HDL, risk factor, triglycerides) after three months; format: in vivo, human; conditions: for HDL / LDL / Non-HDL cholesterol / Total cholesterol / Triglycerides: group value; for Risk factor: total cholesterol blood level divided by HDL blood level
Protocol: Especially, the present invention relates to the present medical formulations for recuperation of vascular walls, lowering low density lipoprotein blood levels, lowering the viscosity of blood, lowering blood pressure, and/or increasing high density lipoprotein levels. Preferably, the present invention relates to the present medical formulation for reducing the risk factor in humans, or patients, at risk of hypercholesterolemia, wherein the risk factor is determined by the total cholesterol blood level divided by the HDL blood level.
(§1) As control, group 1 of 5 patients suffering from increased low density lipoprotein (LDL) levels were treated for three months with a formulation comprising, as daily dose 11.40 mg extract of lovastatin.
(§2) A group 2 of 14 patients suffering from increased low density lipoprotein (LDL) levels were treated for three months with a formulation comprising, as daily dose: • 4.80 mg bark extract of cinnamomum zeylanicum; • 24.20 mg fibre extract of Pinus pinaster; • 24.00 mg bark extract Saccharum officinarum; • 11.40 mg lovastatin; • 1.2 mg leave extract of Taraxacum officinale; • 16 mg leave extract of Camellia sinensis; • 20 mg nicotinamide; • 14 mg 50% alpha tocopherol; • 60 mg coenzyme Q10; • 37.80 mg fish oil comprising 19.2 wt % eicosapentaenoic acid and 12.9 wt % docosahexanoic acid; • 60.00 mg beta-glucan; and • 1 mg cholecalciferol.
(§3) The above ingredients were divided in two capsules for daily intake. The capsules were composed of gelatin. One capsule was taken during breakfast; the other was taken during dinner.

[2] = tested on: patients suffering from increased low density lipoprotein (LDL) levels; assay: Example 2: blood pressure after three months; format: in vivo, human
Protocol: as §1, §2, §3

CC[C@H](C)C(=O)O[C@H]1C[C@@H](C)C=C2C=C[C@H](C)[C@H](CC[C@@H]3C[C@@H](O)CC(=O)O3)[C@H]21 [lovastatin]
HDL Δ ([1]; change T = 0 to T = 3 months): -4.0 mg/dL | LDL Δ ([1]; change T = 0 to T = 3 months): -23.0 mg/dL | Non-HDL cholesterol Δ ([1]; change T = 0 to T = 3 months): -28.0 mg/dL | Risk factor Δ ([1]; change T = 0 to T = 3 months): -0.41 | Total cholesterol Δ ([1]; change T = 0 to T = 3 months): -26.2 mg/dL | Triglycerides Δ ([1]; change T = 0 to T = 3 months): -19 mg/dL | HDL ([1]; T = 0 (before treatment)): 72.0 mg/dL | LDL ([1]; T = 0 (before treatment)): 96.2 mg/dL | Non-HDL cholesterol ([1]; T = 0 (before treatment)): 129.4 mg/dL | Total cholesterol ([1]; T = 0 (before treatment)): 201.4 mg/dL | Triglycerides ([1]; T = 0 (before treatment)): 165.8 mg/dL | HDL ([1]; T = 3 (three months treatment)): 68.0 mg/dL | LDL ([1]; T = 3 (three months treatment)): 73.2 mg/dL | Non-HDL cholesterol ([1]; T = 3 (three months treatment)): 101.4 mg/dL | Total cholesterol ([1]; T = 3 (three months treatment)): 175.2 mg/dL | Triglycerides ([1]; T = 3 (three months treatment)): 146.8 mg/dL | reduction of risk factor ([1]; three months treatment, stated as size of reduction): 0.41 | Risk factor ([1]; T = 0 (before treatment)): 2.91 | Risk factor ([1]; T = 3 (three months treatment)): 2.5 | Diastolic ([2]; T = 0 (before treatment)): 79.2 mmHg | Systolic ([2]; T = 0 (before treatment)): 120.0 mmHg | Diastolic ([2]; T = 3 (three months treatment)): 79.1 mmHg | Systolic ([2]; T = 3 (three months treatment)): 130.0 mmHg | Diastolic Δ ([2]; change T = 0 to T = 3 months): −0.1 mmHg
